Measurements from ChEMBL document CHEMBL3885881, “DrugMatrix”.

Species: Rattus norvegicus
Assay: DrugMatrix - Regimen: Daily Repeat
Type: toxicity, organism-based, Sprague-Dawley
Set-up: regimen Daily Repeat, gender Male, age 6-8 weeks
Details: in vivo, po, route oral GAVAGE, […]; for ABSOLUTE BASOPHIL / ABSOLUTE EOSINOPHIL / ABSOLUTE LYMPHOCYTE / ABSOLUTE MONOCYTE / ABSOLUTE SEGMENTED NEUTROPHIL / BASOPHIL / EOSINOPHIL / ERYTHROCYTE COUNT / HEMATOCRIT / HEMOGLOBIN / LEUKOCYTE COUNT / LYMPHOCYTE / MEAN CORPUSCULAR HEMOGLOBIN / MEAN CORPUSCULAR HEMOGLOBIN CONCENTRATION / MEAN CORPUSCULAR VOLUME / MONOCYTE / NEUTROPHIL / NUCLEATED RED BLOOD CELLS / PLATELET COUNT: tissue Blood; for ALANINE AMINOTRANSFERASE / ALBUMIN / ALKALINE PHOSPHATASE / ASPARTATE AMINOTRANSFERASE / BLOOD UREA NITROGEN / CARBON DIOXIDE / CHLORIDE / CHOLESTEROL / CREATINE PHOSPHOKINASE / CREATININE / GLUCOSE / LACTATE DEHYDROGENASE / LIPASE / PHOSPHORUS / POTASSIUM / SODIUM / TOTAL BILIRUBIN / TOTAL PROTEIN / URIC ACID: tissue Plasma
[1] = 0 mg/kg, 72 h, dose level Control, time 3 day
[2] = 0 mg/kg, 120 h, dose level Control, time 5 day
[3] = 100 mg/kg, 72 h, dose level Low, time 3 day

CC(=O)Nc1ccc(O)cc1 [ACETAMINOPHEN]
ABSOLUTE BASOPHIL [1]: 0 CELLS/uL | ABSOLUTE EOSINOPHIL [1]: 0 CELLS/uL | ABSOLUTE LYMPHOCYTE [1]: 6275.67 CELLS/uL | ABSOLUTE MONOCYTE [1]: 40.67 CELLS/uL | ABSOLUTE SEGMENTED NEUTROPHIL [1]: 633.67 CELLS/uL | BASOPHIL [1]: 0% | EOSINOPHIL [1]: 0% | ERYTHROCYTE COUNT [1]: 5.2 x10E6/uL | HEMATOCRIT [1]: 32.78% | HEMOGLOBIN [1]: 12.98 G/DL | LEUKOCYTE COUNT [1]: 6.95 x10E3/uL | LYMPHOCYTE [1]: 90.17% | MEAN CORPUSCULAR HEMOGLOBIN [1]: 24.97 pg | MEAN CORPUSCULAR HEMOGLOBIN CONCENTRATION [1]: 39.62 G/DL | MEAN CORPUSCULAR VOLUME [1]: 63.03 fL | MONOCYTE [1]: 0.67% | NEUTROPHIL [1]: 9.17% | NUCLEATED RED BLOOD CELLS [1]: 0 /100WBC | PLATELET COUNT [1]: 1082.83 x10E3/uL | ALANINE AMINOTRANSFERASE [1]: 69.67 u/L | ALBUMIN [1]: 4.15 G/DL | ALKALINE PHOSPHATASE [1]: 430.5 u/L | ASPARTATE AMINOTRANSFERASE [1]: 90.83 u/L | BLOOD UREA NITROGEN [1]: 13 mg/dL | CARBON DIOXIDE [1]: 33 mmol/L | CHLORIDE [1]: 99.17 MEQ/L | CHOLESTEROL [1]: 70.5 mg/dL | CREATINE PHOSPHOKINASE [1]: 253.33 u/L | CREATININE [1]: 0.13 mg/dL | GLUCOSE [1]: 157.17 mg/dL | LACTATE DEHYDROGENASE [1]: 85 u/L | LIPASE [1]: 10 u/L | PHOSPHORUS [1]: 10.2 mg/dL | POTASSIUM [1]: 5.78 MEQ/L | SODIUM [1]: 144.12 MEQ/L | TOTAL BILIRUBIN [1]: 0.2 mg/dL | TOTAL PROTEIN [1]: 5.8 G/DL | URIC ACID [1]: 0.8 mg/dL | ABSOLUTE BASOPHIL [2]: 0 CELLS/uL | ABSOLUTE EOSINOPHIL [2]: 0 CELLS/uL | ABSOLUTE LYMPHOCYTE [2]: 10431 CELLS/uL | ABSOLUTE MONOCYTE [2]: 90.5 CELLS/uL | ABSOLUTE SEGMENTED NEUTROPHIL [2]: 1111.83 CELLS/uL | BASOPHIL [2]: 0% | EOSINOPHIL [2]: 0% | ERYTHROCYTE COUNT [2]: 5.51 x10E6/uL | HEMATOCRIT [2]: 34.67% | HEMOGLOBIN [2]: 13.5 G/DL | LEUKOCYTE COUNT [2]: 11.63 x10E3/uL | LYMPHOCYTE [2]: 89.67% | MEAN CORPUSCULAR HEMOGLOBIN [2]: 24.5 pg | MEAN CORPUSCULAR HEMOGLOBIN CONCENTRATION [2]: 38.95 G/DL | MEAN CORPUSCULAR VOLUME [2]: 62.87 fL | MONOCYTE [2]: 0.67% | NEUTROPHIL [2]: 9.67% | NUCLEATED RED BLOOD CELLS [2]: 0 /100WBC | PLATELET COUNT [2]: 1052.67 x10E3/uL | ALANINE AMINOTRANSFERASE [2]: 54.67 u/L | ALBUMIN [2]: 4.15 G/DL | ALKALINE PHOSPHATASE [2]: 359.83 u/L | ASPARTATE AMINOTRANSFERASE [2]: 83 u/L | BLOOD UREA NITROGEN [2]: 13.5 mg/dL | CARBON DIOXIDE [2]: 27.17 mmol/L | CHLORIDE [2]: 98.5 MEQ/L | CHOLESTEROL [2]: 66.83 mg/dL | CREATINE PHOSPHOKINASE [2]: 256.17 u/L | CREATININE [2]: 0.19 mg/dL | GLUCOSE [2]: 171.33 mg/dL | LACTATE DEHYDROGENASE [2]: 91.5 u/L | LIPASE [2]: 10.5 u/L | PHOSPHORUS [2]: 8.72 mg/dL | POTASSIUM [2]: 5.34 MEQ/L | SODIUM [2]: 142.53 MEQ/L | TOTAL BILIRUBIN [2]: 0.2 mg/dL | TOTAL PROTEIN [2]: 6.05 G/DL | URIC ACID [2]: 0.6 mg/dL | ABSOLUTE BASOPHIL [3]: 0 CELLS/uL | ABSOLUTE EOSINOPHIL [3]: 0 CELLS/uL | ABSOLUTE LYMPHOCYTE [3]: 7022 CELLS/uL | ABSOLUTE MONOCYTE [3]: 162.33 CELLS/uL | ABSOLUTE SEGMENTED NEUTROPHIL [3]: 715.67 CELLS/uL | BASOPHIL [3]: 0% | EOSINOPHIL [3]: 0% | ERYTHROCYTE COUNT [3]: 5.13 x10E6/uL | HEMATOCRIT [3]: 32.6% | HEMOGLOBIN [3]: 12.9 G/DL | LEUKOCYTE COUNT [3]: 7.9 x10E3/uL | LYMPHOCYTE [3]: 88.67% | MEAN CORPUSCULAR HEMOGLOBIN [3]: 25.13 pg | MEAN CORPUSCULAR HEMOGLOBIN CONCENTRATION [3]: 39.57 G/DL | MEAN CORPUSCULAR VOLUME [3]: 63.53 fL | MONOCYTE [3]: 2% | NEUTROPHIL [3]: 9.33% | NUCLEATED RED BLOOD CELLS [3]: 0 /100WBC | PLATELET COUNT [3]: 1191.67 x10E3/uL | ALANINE AMINOTRANSFERASE [3]: 62 u/L | ALBUMIN [3]: 4.1 G/DL | ALKALINE PHOSPHATASE [3]: 340 u/L | ASPARTATE AMINOTRANSFERASE [3]: 77.67 u/L | BLOOD UREA NITROGEN [3]: 15.33 mg/dL | CARBON DIOXIDE [3]: 33.67 mmol/L | CHLORIDE [3]: 98.67 MEQ/L | CHOLESTEROL [3]: 85 mg/dL | CREATINE PHOSPHOKINASE [3]: 201.67 u/L | CREATININE [3]: 0.15 mg/dL | GLUCOSE [3]: 165 mg/dL | LACTATE DEHYDROGENASE [3]: 82.67 u/L | LIPASE [3]: 10 u/L | PHOSPHORUS [3]: 11 mg/dL | POTASSIUM [3]: 5.65 MEQ/L | SODIUM [3]: 145.13 MEQ/L | TOTAL BILIRUBIN [3]: 0.2 mg/dL | TOTAL PROTEIN [3]: 5.9 G/DL | URIC ACID [3]: 0.73 mg/dL
